{"source": "paper PMC10221159", "about": "“Investigation of N-Acetyltransferase 2-Mediated Drug Interactions of Amifampridine: In Vitro and In Vivo Evidence of Drug Interactions with Acetaminophen” (Pharmaceutics, 2023)", "key": {"NAT2 [1]": {"target": "T1, NAT2 (Rattus norvegicus, UniProt P50298)", "T1 sequence (P50298 1-290)": "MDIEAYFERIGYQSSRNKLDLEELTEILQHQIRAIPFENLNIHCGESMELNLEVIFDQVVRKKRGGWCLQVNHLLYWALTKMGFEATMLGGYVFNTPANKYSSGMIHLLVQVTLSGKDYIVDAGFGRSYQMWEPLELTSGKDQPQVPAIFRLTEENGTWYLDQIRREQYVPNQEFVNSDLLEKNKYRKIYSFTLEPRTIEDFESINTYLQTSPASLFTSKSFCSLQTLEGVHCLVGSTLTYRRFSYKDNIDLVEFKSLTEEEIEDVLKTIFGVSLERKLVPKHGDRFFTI", "experiment": "Time-dependent inhibition of amifampridine metabolism by acetaminophen, rat liver S9 fraction", "type": "biochemical", "procedure": "To examine whether acetaminophen could inhibit the metabolic activity of amifampridine in a time-dependent manner, the experiment was conducted by using a high concentration of amifampridine (approximately four-fold Km value) for different pre-incubation times (0, 10, 30, and 60 min) in the presence of different concentrations of acetaminophen (0, 10, 50, 100, and 500 μM). The reaction mixture contained the liver S9 fraction (2 mg/mL protein) and 2 mM acetyl-CoA in potassium phosphate buffer. Then, acetaminophen was added and pre-incubated at different times in a thermomixer at 37 °C. The reaction was then initiated by adding amifampridine (240 μM as a final concentration) and vortex mixing followed by incubation at 37 °C for 15 min. After incubation, the 50 μL aliquot was transferred into a tube containing 200 μL of ice-cold potassium phosphate to dilute it five-fold. […]\nKobs, the observed rate of enzyme loss, was estimated from the negative slopes of the lines using a linear regression analysis of the natural logarithm of metabolite formation as a function of incubation time. The first-order rate constant, Kinact, which represents the maximum rate of enzyme inactivation, was calculated using a nonlinear regression analysis as follows: Kobs=Kinact×I/Ki+I"}, "NAT2 [2]": {"target": "T2, NAT2 (Homo sapiens, UniProt P11245)", "T2 construct": "in vitro using S9 fractions obtained from human, rat, and mouse livers; from tissue; host or cells: human liver S9 fraction", "T2 sequence (P11245 1-290)": "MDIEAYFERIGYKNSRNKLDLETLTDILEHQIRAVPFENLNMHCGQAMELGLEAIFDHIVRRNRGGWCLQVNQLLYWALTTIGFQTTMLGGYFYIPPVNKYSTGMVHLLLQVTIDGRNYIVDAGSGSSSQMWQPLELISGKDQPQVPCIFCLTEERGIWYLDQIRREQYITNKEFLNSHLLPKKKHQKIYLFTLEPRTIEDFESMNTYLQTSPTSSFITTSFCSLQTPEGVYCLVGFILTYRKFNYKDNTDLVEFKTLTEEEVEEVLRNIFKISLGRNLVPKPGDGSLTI", "set-up": "method as in PMID 26519524, PMID 9918139", "conditions": "sulfamethazine acetylation, cited from earlier work"}, "NAT2 [3]": {"target": "T2, NAT2", "experiment": "Inhibition of amifampridine acetylation to 3-N-acetylamifampridine by NAT2 inhibitors, human liver S9 fraction", "type": "biochemical", "conditions": "amifampridine 50 μM, 15 min"}, "[4]": {"experiment": "In vivo pharmacokinetic interaction study in rats (plasma)", "set-up": "species or system rat", "conditions": "male, Sprague-Dawley, rat, plasma, ip, 100 mg/kg, acetaminophen 100 mg/kg intraperitoneally, rats", "procedure": "Male Sprague Dawley (SD) rats (7–8 weeks old, 260–330 g) were purchased from Orient Bio, Inc. (Seongnam, Korea). The rats were housed under a light/dark cycle for 12 h and were left for at least a week before the experiment to adapt to the laboratory environment. Water and food were provided ad libitum. The rats were fasted overnight with free access to water prior to pharmacokinetic studies. The protocols for animal experiments were approved in accordance with the Guidelines for Animal Care and Use of Gachon University (approval no.: GIACUC-R2021006; 13 May 2021).\nThe rats were anesthetized with a mixture of Rompun and Zoletil by intramuscular injection and received an intraperitoneal injection of vehicle (40:60 PEG400:normal saline; n = 8) or 100 mg/kg acetaminophen (n = 8). After 10 min, 2 mg/kg amifampridine (dissolved in saline) was administered orally. Blood samples were collected at 0, 5, 15, 30, 60, 90, 120, 240, and 360 min and centrifuged at 14,000 rpm for 15 min at 4 °C. For analysis of amifampridine and 3-N-acetylamifampridine, 50 μL of plasma samples was mixed with 100 μL IS solution (5 ng/mL ondansetron in acetonitrile) and the mixture was vortexed followed by centrifugation at 14,000 rpm for 15 min at 4 °C. For the analysis of acetaminophen, 200 μL of IS (tolbutamide 200 ng/mL in methanol) was added to the plasma samples which were diluted 10-fold using the blank plasma and then vortexed for one minute. Further, the samples were centrifuged at 14,000 rpm for 15 min at 4 °C. The supernatants were transferred to LC vials for quantification.\nNon-compartment analysis (NCA) was performed to calculate the pharmacokinetic parameters for the in vivo study using WinNonlin (Version 8.3. (Pharsight Corporation, Mountain View, CA, USA)). The area under the plasma concentration–time curve from time 0 to infinity (AUCinf) was calculated by the linear trapezoidal method and standard extrapolation using λ, where λ represents the slope of the terminal phase in a semi-log graph for plasma concentration–time profiles. Renal clearance (CLr) was determined by dividing the accumulated amount of drug excreted in the urine by AUCinf."}, "NAT2 [5]": {"target": "T1, NAT2", "experiment": "Reversible inhibition mode of acetaminophen on amifampridine metabolism, rat liver S9 fraction (Lineweaver–Burk, secondary plots)", "type": "biochemical", "procedure": "To determine the inhibition mechanism of amifampridine metabolism by acetaminophen, various concentrations of amifampridine (40, 80, 160, and 320 μM) were incubated with the rat liver S9 fraction in the presence of different concentrations of acetaminophen (0, 10, 50, 100, and 500 μM). After pre-incubating the reaction mixture containing 2 mM acetyl-CoA for 5 min in a thermomixer at 37 °C, acetaminophen and amifampridine were added and further incubated for 15 min at 37 °C. The samples were diluted five-fold using potassium phosphate buffer, then 50 μL of the diluted samples was transferred into the tube containing 100 μL of IS (5 ng/mL ondansetron in acetonitrile). The mixture was vortexed and centrifuged at 14,000 rpm for 15 min at 4 °C. The supernatant was transferred into vials for HPLC-MS/MS analysis and the concentration of 3-N-acetylamifampridine was determined.\nThe α value is the degree to which the binding of acetaminophen changes the affinity of the enzyme for amifampridine."}, "NAT2 [6]": {"target": "T1, NAT2", "experiment": "Inhibition of amifampridine acetylation to 3-N-acetylamifampridine by NAT2 inhibitors, rat liver S9 fraction", "type": "biochemical", "conditions": "rat vs human liver S9 fractions", "procedure": "To determine the half maximal inhibitory concentration (IC50) value of NAT2 inhibitors (acetaminophen, apocynin, and cimetidine) on the metabolism of amifampridine to 3-N-acetylamifampridine, the reaction mixture consisted of a liver S9 fraction (2 mg/mL protein) and 2 mM acetyl-CoA in potassium phosphate buffer was pre-incubated for 5 min in a thermomixer at 37 °C. Then, the NAT2 inhibitors (final concentrations of 0, 1, 5, 10, 50, 100, 500, 1000, and 5000 μM) and amifampridine (final concentration of 50 μM) were added to the reaction mixture and incubated for 15 min at 37 °C. An amount of 50 μL of the mixture was then transferred into the tube and mixed with 100 μL of IS (5 ng/mL ondansetron in acetonitrile). The mixture was vortexed and centrifuged at 14,000 rpm for 15 min at 4 °C. The supernatant was transferred into vials for HPLC-MS/MS analysis and the concentration of 3-N-acetylamifampridine was determined."}, "[7]": {"set-up": "method as in PMID 21074742", "conditions": "humans, oral or intravenous administration; cited from earlier work"}}, "note": "Values joined by “and” are separate entries in the source; they are usually repeats but may differ in a detail not shown here. Equal values may be shown once. Read-outs that look alike come from different tables or passages of the source.", "data": [{"smiles": "CC(=O)Nc1ccc(O)cc1", "note": "[acetaminophen]", "values": [{"measurement": "decrease of metabolic activity of amifampridine", "setting": "NAT2 [1]; acetaminophen pre-incubated with rat liver S9", "value": "approximately 0.31 % per min"}, {"measurement": "kinact", "setting": "NAT2 [1]; pre-incubation 0-60 min, amifampridine 240 μM, rat liver S9", "value": "5.17e-05", "unit": "s⁻¹"}, {"measurement": "Ki", "setting": "NAT2 [2]; human liver cytosol from fast acetylators", "value": 2140, "unit": "µM"}, {"measurement": "Ki", "setting": "NAT2 [2]; human liver cytosol from slow acetylators", "value": 712, "unit": "µM"}, {"measurement": "IC50", "setting": "NAT2 [3]", "value": "4480 ± 742", "unit": "µM"}, {"measurement": "Cmax", "setting": "[4]", "value": "54800 ng/mL and 362 µM"}, {"measurement": "inhibition mode", "setting": "NAT2 [5]; Lineweaver–Burk plot, rat liver S9", "value": "mixed inhibition"}, {"measurement": "α value", "setting": "NAT2 [5]; rat liver S9, mixed inhibition model", "value": 3.48}, {"measurement": "αKi", "setting": "NAT2 [5]; secondary plot (y-intercept), rat liver S9", "value": "238.8 ± 25.6", "unit": "µM"}, {"measurement": "stronger inhibitory effect in rats compared to humans (IC50 ratio)", "setting": "NAT2 [6]", "value": "approximately 29 fold"}, {"measurement": "Cmax", "setting": "[7]", "value": "≤ 200", "unit": "µM"}]}]}
